Patent US10155765B2, “Carboxamide inhibitors of IRAK4 activity” (MERCK SHARP & DOHME CORP., priority 2015, dated 2018)
Counter-ions that a name gives are not always drawn.

target: IRAK4 (Homo sapiens (Human), UniProt Q9NWZ3); assay: IRAK4 Kinase Assay (IMAP fluorescence polarization); assay type: biochemical; conditions: GST tagged IRAK4, 100 μM ATP, 30 minutes at 25° C., IMAP FP
Excerpt: Other assays are known in the literature and could be readily performed by those of skill in the art.
The reaction is initiated by the addition of ATP.

Sequence of IRAK4 (Q9NWZ3 whole entry): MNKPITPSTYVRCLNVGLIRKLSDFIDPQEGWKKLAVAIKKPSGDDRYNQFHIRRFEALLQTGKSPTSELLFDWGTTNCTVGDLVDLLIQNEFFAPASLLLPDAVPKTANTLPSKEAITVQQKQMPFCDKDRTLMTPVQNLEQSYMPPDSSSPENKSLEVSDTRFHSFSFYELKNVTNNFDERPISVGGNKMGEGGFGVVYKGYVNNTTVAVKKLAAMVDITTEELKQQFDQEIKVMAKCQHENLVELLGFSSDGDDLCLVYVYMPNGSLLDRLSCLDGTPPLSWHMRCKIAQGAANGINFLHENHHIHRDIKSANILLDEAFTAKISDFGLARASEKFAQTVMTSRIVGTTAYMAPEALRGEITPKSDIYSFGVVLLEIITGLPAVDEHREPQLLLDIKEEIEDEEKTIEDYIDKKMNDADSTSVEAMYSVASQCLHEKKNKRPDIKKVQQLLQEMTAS

SMILES	IC50
NC(=O)c1nn(-c2cccnc2)cc1NC(=O)c1cnn2ccc(N3CCNCC3)nc12 [Example 36, N-(3-carbamoyl-1-pyridin-3-yl-1H-pyrazol-4-yl)-5-piperazin-1-ylpyrazolo[1,5-a]pyrimidine-3-carboxamide trifluoroacetate]	33 nM
NC(=O)c1nn(-c2ccccn2)cc1NC(=O)c1cnn2ccc(N3CCNCC3)nc12 [Example 37, N-(3-Carbamoyl-1-pyridin-2-yl-1H-pyrazol-4-yl)-5-piperazin-1-ylpyrazolo[1,5-a]pyrimidine-3-carboxamide]	1000 nM
Cn1cc(NC(=O)c2cnn3ccc(N4CCNC(=O)C4)nc23)c(C(N)=O)n1 [Example 38, N-(3-Carbamoyl-1-methyl-1H-pyrazol-4-yl)-5-(3-oxopiperazin-1-yl)pyrazolo[1,5-a]pyrimidine-3-carboxamide]	400 nM
NC(=O)c1ncccc1NC(=O)c1cnn2cccnc12 [Example 41, N-(2-Carbamoylpyridin-3-yl)pyrazolo[1,5-a]pyrimidine-3-carboxamide]	4400 nM
Cn1cc(NC(=O)c2ccc3cccnn23)c(C(N)=O)n1 [Example 43, N-(3-carbamoyl-1-methyl-1H-pyrazol-4-yl)pyrrolo[1,2-b]pyridazine-7-carboxamide trifluoroacetate]	27 nM
NC(=O)c1nn(-c2cccnc2)cc1NC(=O)c1cnn2cccnc12 [Example 44, N-(3-carbamoyl-1-pyridin-3-yl-1H-pyrazol-4-yl)pyrazolo[1,5-a]pyrimidine-3-carboxamide]	59 nM
NC(=O)c1ccncc1NC(=O)c1cnn2cccnc12 [Example 45, N-(4-carbamoylpyridin-3-yl)pyrazolo[1,5-a]pyrimidine-3-carboxamide hydrochloride]	8100 nM
CC(C)(C)OC(=O)N1CCC(n2cc(NC(=O)c3cnn4cccnc34)c(C(N)=O)n2)CC1 [Example 46, tert-butyl 4-{3-carbamoyl-4-[(pyrazolo[1,5-a]pyrimidin-3-ylcarbonyl)amino]-1H-pyrazol-1-yl}piperidine-1-carboxylate]	670 nM
NC(=O)c1nn(C2CCNCC2)cc1NC(=O)c1cnn2cccnc12 [Example 47, N-(3-carbamoyl-1-piperidin-4-yl-1H-pyrazol-4-yl)pyrazolo[1,5-a]pyrimidine-3-carboxamide hydrochloride]	470 nM
CS(=O)(=O)N1CCC(n2cc(NC(=O)c3cnn4cccnc34)c(C(N)=O)n2)CC1 [Example 48, N-{3-carbamoyl-1-[1-(methylsulfonyl)piperidin-4-yl]-1H-pyrazol-4-yl}pyrazolo[1,5-a]pyrimidine-3-carboxamide]	650 nM
NC(=O)c1cnccc1NC(=O)c1cnn2cccnc12 [Example 49, N-(3-carbamoylpyridin-4-yl)pyrazolo[1,5-a]pyrimidine-3-carboxamide hydrochloride]	710 nM
NC(=O)c1sccc1NC(=O)c1cnn2cccnc12 [Example 50, N-(2-carbamoylthiophen-3-yl)pyrazolo[1,5-a]pyrimidine-3-carboxamide hydrochloride]	3500 nM
CC(C)(C)c1cc(NC(=O)c2cnn3cccnc23)c(C(N)=O)s1 [Example 51, N-(5-tert-butyl-2-carbamoylthiophen-3-yl)pyrazolo[1,5-a]pyrimidine-3-carboxamide hydrochloride]	8500 nM
NC(=O)c1ccccc1NC(=O)c1cnn2cccnc12 [Example 52, N-(2-carbamoylphenyl)pyrazolo[1,5-a]pyrimidine-3-carboxamide hydrochloride]	7600 nM
NC(=O)c1n[nH]cc1NC(=O)c1cnn2cccnc12 [Example 53, N-(3-carbamoyl-1H-pyrazol-4-yl)pyrazolo[1,5-a]pyrimidine-3-carboxamide trifluoroacetate]	700 nM
NC(=O)c1cc(S(N)(=O)=O)c(Cl)cc1NC(=O)c1cnn2cccnc12 [Example 54, N-(2-carbamoyl-5-chloro-4-sulfamoylphenyl)pyrazolo[1,5-a]pyrimidine-3-carboxamide trifluoroacetate]	310 nM
NC(=O)c1cc(Br)ccc1NC(=O)c1cnn2cccnc12 [Example 55, N-(4-bromo-2-carbamoylphenyl)pyrazolo[1,5-a]pyrimidine-3-carboxamide hydrochloride]	> 5000 nM
Cn1cc(NC(=O)c2csc3nccnc23)c(C(N)=O)n1 [Example 56, N-(3-Carbamoyl-1-methyl-1H-pyrazol-4-yl)thieno[2,3-b]pyrazine-7-carboxamide]	69 nM
Cn1cc(NC(=O)c2ccc3cnc(NCCN)nn23)c(C(N)=O)n1 [Example 58, 2-[(2-Aminoethyl)amino]-N-(3-carbamoyl-1-methyl-1H-pyrazol-4-yl)pyrrolo[2,1-f][1,2,4]triazine-7-carboxamide]	0.9 nM
NCCNc1ncc2ccc(C(=O)Nc3cn(CCO)nc3C(N)=O)n2n1 [Example 59, 2-[(2-aminoethyl)amino]-N-[3-carbamoyl-1-(2-hydroxyethyl)-1H-pyrazol-4-yl]pyrrolo[2,1-f][1,2,4]triazine-7-carboxamide trifluoroacetate]	2 nM
CNC(=O)c1nn(C)cc1NC(=O)c1ccc2cnc(NCCN)nn12 [Example 60, 2-[(2-aminoethyl)amino]-N-[1-methyl-3-(methylcarbamoyl)-1H-pyrazol-4-yl]pyrrolo[2,1-f][1,2,4]triazine-7-carboxamide trifluoroacetate]	3 nM
Cn1cc(NC(=O)c2ccc3cnc(N[C@@H]4CCCC[C@@H]4N)nn23)c(C(N)=O)n1 [Example 61, 2-{[(1R,2S)-2-aminocyclohexyl]amino}-N-(3-carbamoyl-1-methyl-1H-pyrazol-4-yl)pyrrolo[2,1-f][1,2,41triazine-7-carboxamide trifluoroacetate]	0.7 nM
CCn1cc(NC(=O)c2ccc3cnc(N[C@@H]4CCCC[C@@H]4N)nn23)c(C(N)=O)n1 [Example 62, 2-{[(1R,2S)-2-aminocyclohexyl]amino}-N-(3-carbamoyl-1-ethyl-1H-pyrazol-4-yl)pyrrolo[2,1-f][1,2,41triazine-7-carboxamide trifluoroacetate]	1 nM
NC(=O)c1nn(CCO)cc1NC(=O)c1ccc2cnc(N[C@@H]3CCCC[C@@H]3N)nn12 [Example 63, 2-{[(1R,2S)-2-aminocyclohexyl]amino}-N-[3-carbamoyl-1-(2-hydroxyethyl)-1H-pyrazol-4-yl]pyrrolo[2,1-f][1,2,4]triazine-7-carboxamide trifluoroacetate]	3 nM
CNC(=O)c1nn(C)cc1NC(=O)c1ccc2cnc(N[C@@H]3CCCC[C@@H]3N)nn12 [Example 64, 2-{[(1R,2S)-2-aminocyclohexyl]amino}-N-[1-methyl-3-(methylcarbamoyl)-1H-pyrazol-4-yl]pyrrolo[2,1-f][1,2,4]triazine-7-carboxamide trifluoroacetate]	13 nM
CNC(=O)c1nn(CCO)cc1NC(=O)c1ccc2cnc(N[C@@H]3CCCC[C@@H]3N)nn12 [Example 65, 2-{[(1R,2S)-2-aminocyclohexyl]amino}-N-[1-(2-hydroxyethyl)-3-(methylcarbamoyl)-1H-pyrazol-4-yl]pyrrolo[2,1-f][1,2,4]triazine-7-carboxamide trifluoroacetate]	63 nM
COCCn1cc(NC(=O)c2ccc3cnc(N[C@@H]4CCCC[C@@H]4N)nn23)c(C(N)=O)n1 [Example 66, 2-{[(1R,2S)-2-aminocyclohexyl]amino}-N-[3-carbamoyl-1-(2-methoxyethyl)-1H-pyrazol-4-yl]pyrrolo[2,1-f][1,2,4]triazine-7-carboxamide trifluoroacetate]	6 nM
